# Patent US20240226245A9, “ZIP-IN TECHNOLOGY FOR ANTIVIRAL THERAPEUTIC NANOFORMULATIONS” (PAROLE LABORATORIES INC., priority 2022, published 2024)
# Test: Net charge vs pH of the payload molecule
# Type: physicochemical
# Source text: Step 2: This is an essential step. For short payload molecules with a single ionizable group is enough to know pKa, so the useful pH range is pH>pKa+1 for acidic compounds and pH<pKa−1 for basic compounds. For payloads that are macromolecules with multiple different ionizable groups, such as peptides and proteins, must be measured or calculated net charge vs pH dependence for the full pH range (0-14). Provided three examples, refer to FIGS. 1 to 3.
# For the vancomycin example, there are two ranges of pH where it is ionized (FIG. 1), one is pH 1 and below and the second range is pH 8 and up. Vancomycin at pH ˜1 acquires net charge +1, however at pH 12, the net charge is −4.5. Therefore, vancomycin must be encapsulated at pH 12 by the disclosed method as a “negatively charged payload”. Note, in the range of pH from 3 to 7.5 it is impossible to encapsulate vancomycin because it has no charge.
# Both Cas9 and Cas13 endonucleases have to be encapsulated at pH<4 as “positively charged payloads”.
structure (smiles),measurement,setting,value
"CN[C@H](CC(C)C)C(=O)N[C@H]1C(=O)N[C@@H](CC(N)=O)C(=O)N[C@H]2C(=O)N[C@H]3C(=O)N[C@H](C(=O)N[C@H](C(=O)O)c4cc(O)cc(O)c4-c4cc3ccc4O)[C@H](O)c3ccc(c(Cl)c3)Oc3cc2cc(c3O[C@@H]2O[C@H](CO)[C@@H](O)[C@H](O)[C@H]2O[C@H]2C[C@](C)(N)[C@H](O)[C@H](C)O2)Oc2ccc(cc2Cl)[C@H]1O [Vancomycin, vancomycin]",net charge,pH 12 (FIG. 1),−4.5
same,net charge,pH from 3 to 7.5 (FIG. 1),no charge
same,net charge,pH ˜1 (FIG. 1),+1
